Assay results reported in the supplement of paper PMC10307832.

Legend:
Assay in all cases: relative viability (nuclei count vs DMSO), 5 days (fraction); higher = more cells survive
Carboplatin + Luminespib = compound: C1CC(C1)(C(=O)O)C(=O)O.[NH2-].[NH2-].[Pt+2] [Carboplatin] + CCNC(=O)c1noc(-c2cc(C(C)C)c(O)cc2O)c1-c1ccc(CN2CCOCC2)cc1 [Luminespib] (partner 0.01 µM)
How it was run: (§1)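 Relative viability was taken as the ratio of nuclei in treated wells to nuclei in vehicle wells. Lung cancer cell lines in 1536-well plates received compounds by pin tool one day after seeding, either one drug alone or a fixed anchor-drug dose plus five library-drug doses (not always all listed) in √10 steps. Nuclei were counted on 4× images after 5 days of treatment, and values are medians of duplicate plates.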

GSK126 + Navitoclax = compound: CC[C@H](C)N1C=C(C2=C(C=C(C=C21)C3=CN=C(C=C3)N4CCNCC4)C(=O)NCC5=C(C=C(NC5=O)C)C)C [GSK126] + CC1(C)CCC(c2ccc(Cl)cc2)=C(CN2CCN(c3ccc(C(=O)NS(=O)(=O)c4ccc(N[C@H](CCN5CCOCC5)CSc5ccccc5)c(S(=O)(=O)C(F)(F)F)c4)cc3)CC2)C1 [Navitoclax] (partner 0.5 µM)
How it was run: as §1

MLN4924 + OSI-027 = compound: NS(=O)(=O)OC[C@@H]1C[C@@H](n2ccc3c(N[C@H]4CCc5ccccc54)ncnc32)C[C@@H]1O [MLN4924] + COc1cccc2cc(-c3nc([C@H]4CC[C@H](C(=O)O)CC4)n4ncnc(N)c34)[nH]c12 [OSI-027] (partner 0.5 µM)
How it was run: as §1

Carboplatin + Lapatinib = compound: C1CC(C1)(C(=O)O)C(=O)O.[NH2-].[NH2-].[Pt+2] [Carboplatin] + CS(=O)(=O)CCNCc1ccc(-c2ccc3ncnc(Nc4ccc(OCc5cccc(F)c5)c(Cl)c4)c3c2)o1 [Lapatinib] (partner 2 µM)
How it was run: as §1

Cell Line	relative viability (Carboplatin + Luminespib; first compound 0.08 µM)	relative viability (Carboplatin + Luminespib; first compound 0.253 µM)	relative viability (Carboplatin + Luminespib; first compound 0.8 µM)	relative viability (Carboplatin + Luminespib; first compound 2.53 µM)	relative viability (Carboplatin + Luminespib; first compound 8 µM)	relative viability (GSK126 + Navitoclax; first compound 0.08 µM)	relative viability (GSK126 + Navitoclax; first compound 0.253 µM)	relative viability (GSK126 + Navitoclax; first compound 0.8 µM)	relative viability (GSK126 + Navitoclax; first compound 2.53 µM)	relative viability (GSK126 + Navitoclax; first compound 8 µM)	relative viability (MLN4924 + OSI-027; first compound 0.04 µM)	relative viability (MLN4924 + OSI-027; first compound 0.1265 µM)	relative viability (MLN4924 + OSI-027; first compound 0.4 µM)	relative viability (MLN4924 + OSI-027; first compound 1.265 µM)	relative viability (MLN4924 + OSI-027; first compound 4 µM)	relative viability (Carboplatin + Lapatinib; first compound 0.08 µM)	relative viability (Carboplatin + Lapatinib; first compound 0.253 µM)	relative viability (Carboplatin + Lapatinib; first compound 0.8 µM)	relative viability (Carboplatin + Lapatinib; first compound 2.53 µM)	relative viability (Carboplatin + Lapatinib; first compound 8 µM)
NCI-H441	0.387	0.28	0.266	0.295	0.234	0.948	0.429	0.578	0.878	0.678	0.596	0.613	0.258	0.139	0.193	–	–	–	–	–
IA-LM	–	–	–	–	–	0.702	0.691	0.758	0.761	0.947	–	–	–	–	–	0.809	0.802	0.739	0.929	0.77
SW 900	0.16	0.168	0.162	0.161	0.15	–	–	–	–	–	0.266	0.412	0.217	0.0913	0.152	–	–	–	–	–
A549	–	–	–	–	–	1.37	1.28	1.23	1.24	1.13	–	–	–	–	–	1.12	0.938	0.911	0.928	0.437
NCI-H1299	–	–	–	–	–	1.05	1.07	1.01	1.03	1.02	–	–	–	–	–	0.993	0.922	0.944	0.907	0.892
NCI-H1623	0.548	0.469	0.457	0.507	0.433	–	–	–	–	–	0.404	0.421	0.404	0.333	0.314	–	–	–	–	–
NCI-H2342	0.898	0.789	0.68	0.788	0.608	–	–	–	–	–	0.586	0.779	0.532	0.594	0.547	–	–	–	–	–
HCC-366	–	–	–	–	–	1.17	1.02	1.09	1.12	1.05	1.02	0.895	1.08	0.396	0.0921	1.08	1.01	0.988	0.963	0.863
HCC-78	–	–	–	–	–	1.01	0.711	0.832	0.741	0.804	0.416	0.349	0.399	0.27	0.236	0.867	0.833	0.971	0.875	0.631
NCI-H522	1.05	1.38	0.851	0.904	0.835	–	–	–	–	–	0.666	0.64	0.398	0.317	0.465	–	–	–	–	–
ChaGo-K-1	0.774	0.589	0.399	0.398	0.297	1.19	0.925	1.03	1.27	1.09	0.461	0.35	0.272	0.181	0.176	–	–	–	–	–
EBC-1	–	–	–	–	–	0.449	0.407	0.365	0.477	0.362	–	–	–	–	–	0.201	0.234	0.201	0.208	0.204
Calu-6	–	–	–	–	–	0.936	0.858	0.853	0.842	0.795	–	–	–	–	–	1.12	1.06	1.03	0.87	0.456
